Data from publication PMC9110766, “Structure-Based Design of 2-Aminopurine Derivatives as CDK2 Inhibitors for Triple-Negative Breast Cancer” (Frontiers in Pharmacology, 2022).
Where two headings read alike, the source gives them in different places.

Tests used:
CDK2/cyclin A = CDK2/cyclin A (Homo sapiens, UniProt P24941); experiment: CDK2 inhibition, Kinase-Glo Luminescent Kinase Assay; assay type: biochemical; conditions: geometric means of n ⩾ 3 experiments; 10 µM ATP; read-out: IC50 against CDK2
Procedure: The IC50 values were calculated using Prism GraphPad software.

CDK1/cyclin B = CDK1/cyclin B (Homo sapiens, UniProt P06493); experiment: CDK1 inhibition, Kinase-Glo Luminescent Kinase Assay; assay type: biochemical; conditions: for selectivity for CDK2 over CDK1: ratio of IC50 values
Sequence of CDK1/cyclin B (P06493 whole entry): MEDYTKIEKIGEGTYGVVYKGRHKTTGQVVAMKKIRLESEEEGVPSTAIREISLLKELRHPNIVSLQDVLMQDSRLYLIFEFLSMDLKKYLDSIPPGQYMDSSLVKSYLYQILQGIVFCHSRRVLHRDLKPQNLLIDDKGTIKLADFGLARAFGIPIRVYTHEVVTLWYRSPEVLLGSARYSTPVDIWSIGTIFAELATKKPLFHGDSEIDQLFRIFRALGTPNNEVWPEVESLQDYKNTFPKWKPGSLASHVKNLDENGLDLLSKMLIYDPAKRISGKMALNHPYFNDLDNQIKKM
Sequence of CDK1/cyclin B (P14635 whole entry partner): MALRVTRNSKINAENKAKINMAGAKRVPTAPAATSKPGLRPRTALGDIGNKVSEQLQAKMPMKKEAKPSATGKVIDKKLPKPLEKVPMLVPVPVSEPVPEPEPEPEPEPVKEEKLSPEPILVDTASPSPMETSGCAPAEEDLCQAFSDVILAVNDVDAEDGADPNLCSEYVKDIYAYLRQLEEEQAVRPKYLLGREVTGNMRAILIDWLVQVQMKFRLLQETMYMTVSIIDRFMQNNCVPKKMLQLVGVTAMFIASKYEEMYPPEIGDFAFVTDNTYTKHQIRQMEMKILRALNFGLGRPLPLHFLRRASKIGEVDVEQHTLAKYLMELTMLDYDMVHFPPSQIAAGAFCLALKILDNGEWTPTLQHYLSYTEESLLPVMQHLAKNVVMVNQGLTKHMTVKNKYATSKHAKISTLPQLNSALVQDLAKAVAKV
Procedure: (§1) Experiments were carried out using the Kinase-Glo® Luminescent Kinase Assays as described previously ([Kashem et al., 2007]). Briefly, all enzymatic reactions were conducted at 30°C for 40 min. The 50 µl reaction mixture contains 40 mM Tris, pH 7.4, 10 mM MgCl2, 0.1 mg/ml BSA, 1 mM DTT, 10 µM ATP, 0.2 μg/ml CDKs, and 100 μM lipid substrate. The compounds were diluted with 10% DMSO and then 5 µl of the dilution was removed and put into the subsequent reaction. The kinase activities were measured by detecting the content of remaining ATP. The luminescent signal was correlated with the amount of residual ATP and negatively correlated with the amount of kinase activity. The IC50 values were calculated using Prism GraphPad software.

CDK6/cyclin D3 = CDK6/cyclin D3 (Homo sapiens, UniProt Q00534); experiment: CDK6 inhibition, Kinase-Glo Luminescent Kinase Assay; assay type: biochemical; conditions: for selectivity for CDK2 over CDK6: ratio of IC50 values
Sequence of CDK6/cyclin D3 (Q00534 whole entry): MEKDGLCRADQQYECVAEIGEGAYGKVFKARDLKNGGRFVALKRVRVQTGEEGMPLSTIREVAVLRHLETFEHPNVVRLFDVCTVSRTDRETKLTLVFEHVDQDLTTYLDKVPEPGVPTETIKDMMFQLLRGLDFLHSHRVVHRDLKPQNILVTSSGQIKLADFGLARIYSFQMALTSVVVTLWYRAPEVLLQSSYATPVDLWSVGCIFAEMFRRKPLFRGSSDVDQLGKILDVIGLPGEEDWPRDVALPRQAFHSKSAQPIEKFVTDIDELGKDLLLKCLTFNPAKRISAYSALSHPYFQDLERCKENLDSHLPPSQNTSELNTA
Sequence of CDK6/cyclin D3 (P30281 whole entry partner): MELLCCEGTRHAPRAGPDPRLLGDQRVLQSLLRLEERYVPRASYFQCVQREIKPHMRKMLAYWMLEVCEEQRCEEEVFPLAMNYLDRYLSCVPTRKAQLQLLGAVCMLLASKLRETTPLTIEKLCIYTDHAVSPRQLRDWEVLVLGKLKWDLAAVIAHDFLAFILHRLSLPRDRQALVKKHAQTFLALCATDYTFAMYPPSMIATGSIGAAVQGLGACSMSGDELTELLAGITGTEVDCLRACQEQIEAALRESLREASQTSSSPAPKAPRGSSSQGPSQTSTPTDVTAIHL
Procedure: as §1

CDK8/cyclin C = CDK8/cyclin C (Homo sapiens, UniProt P49336); experiment: CDK8 inhibition, Kinase-Glo Luminescent Kinase Assay; assay type: biochemical; conditions: for selectivity for CDK2 over CDK8: CDK8 inhibition <20% @ 5 μM; for CDK8/cyclin C Inhibition rate @5 μM (%) / inhibition at 5 µM: compound at 5 μM; for inhibition at 5 µM: read-out: CDK8/cyclin C Inhibition rate @5 μM (%)
Sequence of CDK8/cyclin C (P49336 whole entry): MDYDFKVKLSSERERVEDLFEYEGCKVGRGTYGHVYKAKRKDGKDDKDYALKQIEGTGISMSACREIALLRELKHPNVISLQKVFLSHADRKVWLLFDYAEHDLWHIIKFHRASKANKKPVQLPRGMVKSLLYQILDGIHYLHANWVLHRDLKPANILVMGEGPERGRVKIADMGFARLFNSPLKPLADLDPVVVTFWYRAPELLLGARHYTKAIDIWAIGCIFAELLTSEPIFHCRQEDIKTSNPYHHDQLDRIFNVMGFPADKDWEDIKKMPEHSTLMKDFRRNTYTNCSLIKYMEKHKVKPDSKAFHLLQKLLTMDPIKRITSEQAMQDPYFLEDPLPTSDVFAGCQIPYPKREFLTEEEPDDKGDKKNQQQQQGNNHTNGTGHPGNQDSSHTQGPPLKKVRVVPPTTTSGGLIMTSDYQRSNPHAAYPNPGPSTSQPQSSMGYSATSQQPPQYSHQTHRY
Sequence of CDK8/cyclin C (P24863 whole entry partner): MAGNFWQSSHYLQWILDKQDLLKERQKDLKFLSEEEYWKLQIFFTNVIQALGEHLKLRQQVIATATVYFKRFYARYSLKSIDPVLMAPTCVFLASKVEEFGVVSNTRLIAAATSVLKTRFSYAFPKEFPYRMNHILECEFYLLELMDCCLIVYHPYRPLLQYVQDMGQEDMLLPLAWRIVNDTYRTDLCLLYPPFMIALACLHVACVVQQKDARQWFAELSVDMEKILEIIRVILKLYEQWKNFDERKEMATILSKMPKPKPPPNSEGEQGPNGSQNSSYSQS
Procedure: as §1

MDA-MB-231 cells [1] = experiment: Anti-proliferation test (MTT); assay type: cell-based; conditions: Homo sapiens, 48 h
MDA-MB-231 cells [2] = experiment: Cell cycle analysis (PI staining, flow cytometry); assay type: cell-based, human; conditions: 20 μM, 24 h, compared with negative control group
Procedure: MDA-MB-231 cells were seeded in six-well plates and incubated with 20 μM compounds 11c, 11l, 11p, and vehicle (0.2% DMSO) for 24 h. Subsequently, cells were centrifugated and washed with cold PBS buffer. After the centrifugation, the supernatants were removed, and the cells were resuspended in PBS buffer. Then, 10 μl of PI were added and the cells were incubated in the dark for 15 min at room temperature. The stained cells were analyzed by a flow cytometer (BD Accuri C6).

CDK2/A = conditions: cited from earlier work
CDK1/B = conditions: cited from earlier work
CDK4/D3 = tested on: CDK4/D3; set-up: method as in Fry et al., 2004; conditions: ref Fry et al., 2004; cited from earlier work
CDK4/D1 = tested on: CDK4/D1; set-up: method as in Fry et al., 2004; conditions: ref Fry et al., 2004; cited from earlier work
CDK6/D2 = tested on: CDK6/D2; set-up: method as in Fry et al., 2004; conditions: ref Fry et al., 2004; cited from earlier work
[3] = Cytotoxicity (MTT) in human embryonic kidney cells; assay type: cell-based; conditions: 293T cells
Procedure: Standard MTT (thiazolyl blue; 3-[4,5-dimethylthiazol-2-yl]-2,5-diphenyltetrazolium bromide) assays were performed as 5 mg/ml. Briefly, MDA-MB-231 or 293T cells were seeded into 96-well plates and incubated for 24 h at 37°C. All compounds were dissolved in DMSO, and a gradient dilution series were prepared in 100 μl of cell medium, added to cells (in triplicates), and incubated for 48 h at 37°C with 5% CO2. MTT was added (5 mg/ml, 20 μl) to each plate and these mixtures were incubated for another 4 h. Then, the medium was removed, and the mixture was completely dissolved in DMSO (200 μL) after shaking for 10 min.

| IC50 (CDK2/cyclin A) [nM] | IC50 (CDK1/cyclin B) [nM] | selectivity for CDK2 over CDK1 (CDK1/cyclin B) [fold] | IC50 (CDK6/cyclin D3) [nM] | selectivity for CDK2 over CDK6 (CDK6/cyclin D3) | selectivity for CDK2 over CDK8 (CDK8/cyclin C) | CDK8/cyclin C Inhibition rate @5 μM (%) (CDK8/cyclin C) | inhibition at 5 µM (CDK8/cyclin C) [%] | IC50 (MDA-MB-231 cells [1]) [µM] | melting point [°C] | Structure (SMILES) | effect on cell cycle (percentage of cells in G2/M phase) (MDA-MB-231 cells [2]) | IC50 (CDK2/A; ref Wang et al., 2013) [µM] | IC50 (CDK1/B; ref Wang et al., 2013) [µM] | IC50 (CDK4/D3) [nM] | IC50 (CDK4/D1) [nM] | IC50 (CDK6/D2) [nM] | IC50 at 48 h [3] [µM] | IC50 (CDK2/A; ref Coxon et al., 2017) [µM] | IC50 (CDK1/B; ref Coxon et al., 2017) [µM] |
| --- | --- | --- | --- | --- | --- | --- | --- | --- | --- | --- | --- | --- | --- | --- | --- | --- | --- | --- | --- |
| 110 ± 10 | 240 ± 40 | 2 | 2200 ± 100 | 18 fold | more than 42 fold | 19 | < 20 | 8.11 to 15.7 | 236 to 238 | Cl.NCc1cccc(-c2nc(Nc3cccc([N+](=O)[O-])c3)nc3[nH]cnc23)c1 [Compound 11c, 6-(3-(aminomethyl)phenyl)-N-(3-nitrophenyl)-9H-purin-2-amine hydrochloride] | increased the percentage of cells in the G2/M phase | – | – | – | – | – | – | – | – |
| 310 ± 20 | – | – | – | – | – | – | – | – | > 300 | Cl.Nc1cccc(-c2nc(Nc3cccc([N+](=O)[O-])c3)nc3[nH]cnc23)c1 [Compound 11a, 6-(3-aminophenyl)-N-(3-nitrophenyl)-9H-purin-2-amine hydrochloride] | – | 0.023 | 0.35 | – | – | – | – | – | – |
| 19 ± 1 | 120 ± 20 | 4.6 to 6.3 | 2700 ± 500 | more than 140 fold | more than 140 fold | 11 | < 20 | 8.11 to 15.7 | – | Cl.NCc1cccc(-c2nc(Nc3ccc(S(N)(=O)=O)cc3)nc3[nH]cnc23)c1 [Compound 11l, 4-((6-(3-(aminomethyl)phenyl)-9H-purin-2-yl)amino)benzenesulfonamide hydrochloride] | increased the percentage of cells in the G2/M phase | – | – | – | – | – | > 100 | – | – |
| 32 ± 1 | 150 ± 20 | 4.6 to 6.3 | 4800 ± 100 | more than 140 fold | more than 140 fold | 15 | < 20 | 8.11 to 15.7 | > 300 | CNS(=O)(=O)c1ccc(Nc2nc(-c3cccc(CN)c3)c3nc[nH]c3n2)cc1.Cl [Compound 11p, 4-((6-(3-(aminomethyl)phenyl)-9H-purin-2-yl)amino)-N-methylbenzenesulfonamide hydrochloride] | increased the percentage of cells in the G2/M phase | – | – | – | – | – | – | – | – |

The remaining lines, values behind:

| Structure (SMILES) | IC50 (CDK2/cyclin A) [nM] | IC50 (CDK1/cyclin B) [nM] | selectivity for CDK2 over CDK1 (CDK1/cyclin B) [fold] | IC50 (CDK6/cyclin D3) [nM] | selectivity for CDK2 over CDK6 (CDK6/cyclin D3) | selectivity for CDK2 over CDK8 (CDK8/cyclin C) | CDK8/cyclin C Inhibition rate @5 μM (%) (CDK8/cyclin C) | inhibition at 5 µM (CDK8/cyclin C) [%] | IC50 (MDA-MB-231 cells [1]) [µM] | melting point [°C] | effect on cell cycle (percentage of cells in G2/M phase) (MDA-MB-231 cells [2]) | IC50 (CDK2/A; ref Wang et al., 2013) [µM] | IC50 (CDK1/B; ref Wang et al., 2013) [µM] | IC50 (CDK4/D3) [nM] | IC50 (CDK4/D1) [nM] | IC50 (CDK6/D2) [nM] | IC50 at 48 h [3] [µM] | IC50 (CDK2/A; ref Coxon et al., 2017) [µM] | IC50 (CDK1/B; ref Coxon et al., 2017) [µM] |
| --- | --- | --- | --- | --- | --- | --- | --- | --- | --- | --- | --- | --- | --- | --- | --- | --- | --- | --- | --- |
| CC(=O)c1c(C)c2cnc(Nc3ccc(N4CCNCC4)cn3)nc2n(C2CCCC2)c1=O [Palbociclib] | – | – | – | – | – | – | – | – | – | – | – | – | – | […] | […] | 15 | – | – | – |
| NS(=O)(=O)c1ccc(Nc2nc(-c3cccc(-c4ccccc4)c3)c3nc[nH]c3n2)cc1 [compound 73, reference compound] | – | – | – | – | – | – | – | – | – | – | – | – | – | – | – | – | – | 0.044 | 86 |
